The source of these data is ChEMBL document CHEMBL5137114, “Discovery of IHMT-MST1-58 as a Novel, Potent, and Selective MST1 Inhibitor for the Treatment of Type 1/2 Diabetes” (J Med Chem, 2022).

The inhibition is the relative decrease from the control value, in per cent. The term AUC(0-t) denotes exposure summed from dosing to a finite time, without extrapolation to infinity. A low value points to low exposure. One may read the Cmax as the maximum level reached in the sampled fluid or tissue.

Activity calls are given as the source filed them. No cut-off for these calls is given here.

Data set [1] has as its system Serine/threonine-protein kinase 4 (Rattus norvegicus). The data set can be described thus: Inhibition of TNF-alpha-stimulated MST1 phosphorylation in rat INS1 cells incubated for 12 hrs by Western blotting analysis. Particulars: dose 0.1-10 µM, DDE = dose-dependent effect. In general terms: Immunoblotting shows a protein as a band on a membrane.
A short description of data set [2]: AUC (0 to t) in mouse at 10 mg/kg, po measured up to 24 hrs by LC-MS/MS analysis. It is filed as ADME, organism-based. Also noted: time < 24 hrs, dose 10 mg/kg, route po. The conditions noted are these: in vivo.
Data set [3] concerns Serine/threonine-protein kinase 4 (Rattus norvegicus). The data set can be described thus: Inhibition of IL-1beta[…]-stimulated MST1 in rat RIN-m5F cells assessed as reduction in MOB1 autophosphorylation incubated for 12 hrs by Western blotting analysis. The conditions noted are these: dose 0.1-10 µM, DDE = dose-dependent effect.
For data set [4], the system named is Mus musculus. The data set is described as follows: Antidiabetic activity in 12 to 14 hrs fasted multi low dose STZ-induced C57BL/6J mouse model of type 1 diabetes assessed as reduction on blood glucose at 50 mg/kg, po qd pretreated with compound followed by glucose challenge and measured upto 180 mins by IPGTT assay. It is filed as functional, organism-based.

Another data set relates to RAW264.7. The data set is described as follows: Inhibition of MST1 in mouse RAW264.7 cells assessed as reduction in H2O2-stimulated MST1/MST2 autophosphorylation at T183/T180 residues preincubated for 2 hrs followed by H2O2 addition for 30 mins by Western blotting analysis. The conditions noted are these: dose 0.1-10 µM, time 2.5 hrs, DDE = dose-dependent effect. It is filed as cell-based.

Data set [5] has as its target T1, Serine/threonine-protein kinase 3 (Homo sapiens) (UniProt Q13188).
T1 sequence (whole entry): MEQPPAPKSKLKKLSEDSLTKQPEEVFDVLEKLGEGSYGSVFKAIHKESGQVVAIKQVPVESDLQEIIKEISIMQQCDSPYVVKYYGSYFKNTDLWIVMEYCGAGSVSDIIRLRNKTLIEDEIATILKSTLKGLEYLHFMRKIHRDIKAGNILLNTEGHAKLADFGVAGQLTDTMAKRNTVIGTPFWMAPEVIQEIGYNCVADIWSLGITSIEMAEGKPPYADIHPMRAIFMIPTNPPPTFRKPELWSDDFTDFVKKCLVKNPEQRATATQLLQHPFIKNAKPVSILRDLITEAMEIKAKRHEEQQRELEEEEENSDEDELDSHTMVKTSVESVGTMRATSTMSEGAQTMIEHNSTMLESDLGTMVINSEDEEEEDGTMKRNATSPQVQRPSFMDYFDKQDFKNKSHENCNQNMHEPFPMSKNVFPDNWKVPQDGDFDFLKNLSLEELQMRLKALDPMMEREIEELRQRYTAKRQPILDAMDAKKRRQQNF
The data set is described as follows: Inhibition of recombinant full length N-terminal GST -tagged human MST2 expressed in baculovirus infected Sf9 insect cells using KKSRGDYMTMQIG as substrate incubated for 1 hr in presence of ATP by ADP-Glo luminescent assay relative to control. Particulars: concentration not given here. (ADP-Glo turns the ADP formed in a reaction into a luminescent signal.)

Data set [6] has as its system Mus musculus. The data set is described as follows: Antidiabetic activity against 12 hrs fasted high fat diet-STZ-induced C57BL/6J mouse model of type 2 diabetes assessed as decrease in fasting blood glucose level at 50 mg/kg, po qd measured immediately (reference value: 20.3 mmol/L). The data set is classed as functional.
Data set [7] is described as follows: Cmax in Sprague-Dawley rat at 1 mg/kg, iv measured up to 12 hrs by LC-MS/MS analysis. It is filed as ADME, organism-based. Also noted: time < 12 hrs, dose 1 mg/kg, route iv. The conditions noted are these: in vivo.
A short description of data set [8]: AUC (0 to t) in Sprague-Dawley rat at 10 mg/kg, po measured up to 24 hrs by LC-MS/MS analysis. It is filed as ADME, organism-based. More on the design: time < 24 hrs, dose 10 mg/kg, route po. Particulars: in vivo.
Data set [9] concerns Mus musculus. The data set can be described thus: Antidiabetic activity against multi low dose STZ-induced C57BL/6J mouse model of type 1 diabetes assessed as increase in water consumption at 50 mg/kg, po administered upto 79 days in presence of metformin. The data set is classed as functional, organism-based. Particulars: time <= 79.0 day.
In data set [10] the test system is Mus musculus. The data set is described as follows: Antidiabetic activity in 12 to 14 hrs fasted high fat diet-STZ-induced C57BL/6J mouse model of type 2 diabetes assessed as reduction on blood glucose at 50 mg/kg, po qd pretreated with compound followed by glucose challenge measured upto 180 mins by IPGTT assay. It is filed as functional, organism-based.
Data set [11] is described as follows: Cmax in mouse plasma at 50 mg/kg, po measured up to 24 hrs by LC-MS/MS analysis. The data set is classed as ADME, organism-based. More on the design: dose 50 mg/kg, time < 24 hrs, route po.
The subject of data set [12] is Serine/threonine-protein kinase 4 (Rattus norvegicus). The data set can be described thus: Inhibition of INF-gamma-stimulated MST1 in rat RIN-m5F cells assessed as reduction in MOB1 autophosphorylation incubated for 12 hrs by Western blotting analysis. The conditions noted are these: dose 0.1-10 µM, DDE = dose-dependent effect.
Data set [13] deals with Mus musculus. The data set can be described thus: Antidiabetic activity against 8 hrs fasted multi low dose STZ-induced C57BL/6J mouse model of type 1 diabetes assessed as decrease in fasting blood glucose level at 50 mg/kg, po administered for 77 days (reference value: 22.3 mmol/L). It is filed as functional. Particulars: time 77 day.
Data set [14] in a line: AUC (0 to t) in mouse Pancreas at 50 mg/kg, po measured up to 24 hrs by LC-MS/MS analysis. The data set is classed as ADME, organism-based. More on the design: time < 24 hrs, dose 50 mg/kg, route po.

For `Cc1ccccc1C1C(=O)N(C)c2cnc(Nc3ccc(S(N)(=O)=O)cc3)nc2N1C` (stereo not given), the inhibition result in [1] was “Dde”; in data set [3], “Dde”; in the data set on RAW264.7, “Dde”; in [5], 52%; in [12], “Dde”. For the same compound, the AUC(0-t) at 24 h came out at 5580 ng·h/mL in [2] and 51400 ng·h/mL in data set [14]. The result in the data set with Mus musculus [4], in the data set with Mus musculus [9] and in the data set on Mus musculus [10] was Active. Moreover, the results for the Activity in the data set on Mus musculus [6] and in the data set with Mus musculus [13] were 20.2 mmol/L and 14.2 mmol/L, respectively. In addition, the figures for the Cmax in data set [7] and in data set [11] were 944 ng/mL and 3990 ng/mL, respectively. The compound further gave an AUCt in data set [8] of 4858 ng·h/mL.
